Reference: patent US6737407B1, “Treatment of obesity” (Metabolic Pharmaceuticals, Ltd., priority 1997, dated 2004)
Where no end group is shown, it is not given here.

Assays:
[1] = system: Human Abdominal adipose Tissue; experiment: Antilipogenic activity in human abdominal adipose tissue; format: cell-based; conditions: 0.1 μM peptide; BSA + insulin
Protocol: The rate of the incorporation of exogenous [C^14]-glucose into total lipid in adipose tissue was measured as the index of anti-lipogenic activity of hGH 177-191.
Adipose tissues were sliced into segments of approximately 200 mg each and then placed in Krebs-Ringer bicarbonate (KRB) buffer (pH 7.4) containing 2% defatted BSA, and glucose (0.1 mg/ml) and gassed with 95% O2-5% CO2 at 37° C. After 1 hr preincubation, the tissues were transferred to another 2 ml of fresh media containing [C^14]-glucose (final specific activity 0.05 μCi/μmol), […] of insulin (0.1 mU/ml) for a further 90 min incubation (conditions as above). Then the tissues were removed, washed thoroughly with KRB buffer and lipid was extracted with 5 ml of chlorofom/methanol (2:1, v/v) The extraction solution was washed with 2 ml of MeOH-H2O solution containing 0.1% MgCl2. A 2.5 ml aliquot of the washed extraction solution was taken and transferred to scintillation vials. The [C^14] radioactivity was measured with a liquid scintillation counter. The rates of total lipid synthesis were expressed as μmol [C^14]-glucose incorporated into lipid/g tissue/hr.
Tables 6 and 7 show the in vitro antilipogenic and lipolytic activity of hGH 177-191 and two representative analogues (Ref Nos. 9604 and 9605) on human adipose tissue.

[2] = system: Porcine adipose Tissue; experiment: Lipolytic activity in porcine adipose tissue; format: cell-based, pig; conditions: 0.5 μM peptide
Protocol: Adipose tissues were removed from animals and sliced into segments of approximately 200 mg each. Then the tissues were pre-incubated in 25 ml vials containing 2 ml of Krebs-Ringerbicarbonate (KRB) buffer, 4% defatted BSA and 5.5 mM glucose under an atmosphere of carbogen (95%O2/ 5%CO2) at 37° C. for 1 hour. Tissues were then transferred to another vials with fresh medium and the incubation was initiated by adding hGH 177-191 peptide or analogues into the vials. The mixtures were then incubated at 37° C. for 90 minutes. After incubation, the tissues wee removed and aliquots (200 μl) of samples withdrawn from the medium were assayed for the contents of glycerol or free fatty acid (FFA) either by the enzyme assay (glycerol kinase) or calorimetric (copper-dye) spectrometry. The NADH or color produced was then monitored by the absorption at 340 nm and 610 nm, respectively.
Since corresponding sequences of non-human mammals are effectively peptide variants of the human sequence, it is also therefore expected that those corresponding sequences will be effective in other mammals including humans.

## LRIVQCRSVEGSCGF (cysteine pairing not given here) [Ref No. 9401]
[1]
  14C incorporation: 40 ± 3 Av DPM/mg tissue/hour
[2]
  Glycerol released: 1300 ± 160 nmol/mg tissue/hour
